*1 amine or outer side, *2 acyl side, *3 side chain or, on linkers, in order; H or OH if unused. Where a SMILES comes first, the peptide text is derived from it. Bridges are numbered along the chain shown (N, C = ends). [ ]: non-standard residue; d: D form. Ala(6-(2-MePh)pyridin-3-yl) = Cc1ccccc1-c1ccc(C[C@H](N)C(=O)O)cn1; Phe(4-(2-Et-4-HO-Ph)) = CCc1cc(O)ccc1-c1ccc(C[C@H](N)C(=O)O)cc1; Bip(4'-COOH) = N[C@@H](Cc1ccc(-c2ccc(C(=O)O)cc2)cc1)C(=O)O; Bip(4'-NHAc) = CC(=O)Nc1ccc(-c2ccc(C[C@H](N)C(=O)O)cc2)cc1; Phe(4-(3-Py)) = N[C@@H](Cc1ccc(-c2cccnc2)cc1)C(=O)O; X10 = CCc1ccccc1-c1ccc(C[C@H](N[*:1])C(=O)[*:2])cc1; Ala(indol-4-yl) = N[C@@H](Cc1cccc2[nH]ccc12)C(=O)O; Trp(5-CN) = N#Cc1ccc2[nH]cc(C[C@H](N)C(=O)O)c2c1; Phe(3-CF3) = N[C@@H](Cc1cccc(C(F)(F)F)c1)C(=O)O; Ala(morpholin-4-yl) = N[C@@H](CN1CCOCC1)C(=O)O; Phe(4-COOH) = N[C@@H](Cc1ccc(C(=O)O)cc1)C(=O)O; X5 = O=C([C@H](Cc1ccc2ncccc2c1)N[*:1])[*:2]; Bip = N[C@@H](Cc1ccc(-c2ccccc2)cc1)C(=O)O; 1Nal = N[C@@H](Cc1cccc2ccccc12)C(=O)O; 2Nal = N[C@@H](Cc1ccc2ccccc2c1)C(=O)O; Bta = N[C@@H](Cc1csc2ccccc12)C(=O)O; Cha = N[C@@H](CC1CCCCC1)C(=O)O; Orn = NCCC[C@H](N)C(=O)O; Dab = NCC[C@H](N)C(=O)O

For this assay, the target named is T1, human PD-1 / PD-L1-Ig binding on Jurkat cell line over-expressing human PD-1 (Jurkat-PD-1) (Homo sapiens, UniProt Q15116).
T1 construct: expressed in transfected cells; host or cells: Jurkat
T1 sequence (Q15116 25-288): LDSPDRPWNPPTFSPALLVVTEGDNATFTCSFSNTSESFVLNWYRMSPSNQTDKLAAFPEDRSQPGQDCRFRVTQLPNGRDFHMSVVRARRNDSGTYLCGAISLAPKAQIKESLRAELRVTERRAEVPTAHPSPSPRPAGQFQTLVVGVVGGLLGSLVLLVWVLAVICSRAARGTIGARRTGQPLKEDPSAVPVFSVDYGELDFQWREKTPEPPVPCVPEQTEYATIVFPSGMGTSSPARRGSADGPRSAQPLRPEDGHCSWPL
Kind of assay: Jurkat-PD-1 Cell Binding High-Content Screening Assay (CBA). The following applies: Jurkat-PD-1 cells, PE-labeled PD-L1-Ig 20 nM final; read-out: Jurkat HPD1_PDL1 IC50. It counts as cell-based. In a few lines:
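Binding of fluorescent PD-L1-Ig (phycoerythrin linked via the Ig tag, 20 nM final) to PD-1-overexpressing Jurkat cells was imaged after a 2 h, 37° C compound pretreatment and 1 hour ligand incubation.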
By IC50 is commonly meant the point on the concentration scale where inhibition reaches its midpoint. On to `CC(C)C[C@H]1NC(=O)[C@H](CCCN)NC(=O)[C@H](Cc2ccc(C(=O)O)cc2)NC(=O)[C@H](Cc2ccc(-c3ccccc3)cc2)NC(=O)[C@H](Cc2ccc(-c3cccnc3)cc2)NC(=O)[C@H](Cc2cccc(C(F)(F)F)c2)NC(=O)[C@H](CC(=O)O)NC(=O)[C@H](Cc2ccc(C(=O)O)cc2)NC(=O)[C@H](CN2CCOCC2)NC(=O)CSC[C@@H](C(=O)N[C@@H](CCN)C(N)=O)NC(=O)[C@H](CCC(=O)O)NC(=O)[C@H](C(C)C)NC(=O)[C@H](CC2CCCCC2)NC(=O)[C@H](CCN)NC1=O` [Example 2731] ({CH2CO}-[Ala(morpholin-4-yl)][Phe(4-COOH)]D[Phe(3-CF3)][Phe(4-(3-Py))][Bip][Phe(4-COOH)][Orn][dL][Dab][Cha]VEC[Dab]-NH2; thioether N-14), for which the half-maximal inhibitory concentration (IC50) was determined as 1.5 nM.
The figure for `Cc1ccccc1-c1ccc(C[C@@H]2NC(=O)[C@H](Cc3cccc(C(F)(F)F)c3)NC(=O)[C@H](CC(=O)O)NC(=O)[C@H](Cc3ccc(C(=O)O)cc3)NC(=O)[C@H](CN3CCOCC3)NC(=O)CSC[C@@H](C(=O)N[C@@H](CCN)C(N)=O)NC(=O)[C@H](CCC(=O)O)NC(=O)[C@H](C(C)C)NC(=O)[C@H](CC3CCCCC3)NC(=O)[C@H](CCN)NC(=O)[C@@H](CC(C)C)NC(=O)[C@H](CCCN)NC(=O)[C@H](Cc3ccc(C(=O)O)cc3)NC(=O)[C@H](Cc3ccc(-c4ccccc4)cc3)NC2=O)cn1` [Example 2732] ({CH2CO}-[Ala(morpholin-4-yl)][Phe(4-COOH)]D[Phe(3-CF3)][Ala(6-(2-MePh)pyridin-3-yl)][Bip][Phe(4-COOH)][Orn][dL][Dab][Cha]VEC[Dab]-NH2; thioether N-14) is 1.7 nM; for `CCc1cc(O)ccc1-c1ccc(C[C@@H]2NC(=O)[C@H](Cc3cccc(C(F)(F)F)c3)NC(=O)[C@H](CC(=O)O)NC(=O)[C@H](Cc3ccc(C(=O)O)cc3)NC(=O)[C@H](CN3CCOCC3)NC(=O)CSC[C@@H](C(=O)N[C@@H](CCN)C(N)=O)NC(=O)[C@H](CCC(=O)O)NC(=O)[C@H](C(C)C)NC(=O)[C@H](CC3CCCCC3)NC(=O)[C@H](CCN)NC(=O)[C@@H](CC(C)C)NC(=O)[C@H](CCCN)NC(=O)[C@H](Cc3ccc(C(=O)O)cc3)NC(=O)[C@H](Cc3ccc(-c4ccccc4)cc3)NC2=O)cc1` [Example 2733] ({CH2CO}-[Ala(morpholin-4-yl)][Phe(4-COOH)]D[Phe(3-CF3)][Phe(4-(2-Et-4-HO-Ph))][Bip][Phe(4-COOH)][Orn][dL][Dab][Cha]VEC[Dab]-NH2; thioether N-14) it is 2.5 nM.
The figure for `CCc1ccccc1-c1ccc(C[C@@H]2NC(=O)[C@H](Cc3cccc(C(F)(F)F)c3)NC(=O)[C@H](CC(=O)O)NC(=O)[C@H](Cc3ccc(C(=O)O)cc3)NC(=O)[C@H](CN3CCOCC3)NC(=O)CSC[C@@H](C(=O)N[C@@H](CCN)C(N)=O)NC(=O)[C@H](CCC(=O)O)NC(=O)[C@H](C(C)C)NC(=O)[C@H](CC3CCCCC3)NC(=O)[C@H](CCN)NC(=O)[C@@H](CC(C)C)NC(=O)[C@H](CCCN)NC(=O)[C@H](Cc3ccc(C(=O)O)cc3)NC(=O)[C@H](Cc3ccc(-c4ccccc4)cc3)NC2=O)cc1` [Example 2734] ({CH2CO}-[Ala(morpholin-4-yl)][Phe(4-COOH)]D[Phe(3-CF3)][X10][Bip][Phe(4-COOH)][Orn][dL][Dab][Cha]VEC[Dab]-NH2; thioether N-14) is 5.7 nM; for `CC(C)C[C@H]1NC(=O)[C@H](CCCN)NC(=O)[C@H](Cc2ccc(C(=O)O)cc2)NC(=O)[C@H](Cc2ccc(-c3ccccc3)cc2)NC(=O)[C@H](Cc2ccc(-c3ccc(C(=O)O)cc3)cc2)NC(=O)[C@H](Cc2cccc(C(F)(F)F)c2)NC(=O)[C@H](CC(=O)O)NC(=O)[C@H](Cc2ccc(C(=O)O)cc2)NC(=O)[C@H](CN2CCOCC2)NC(=O)CSC[C@@H](C(=O)N[C@@H](CCN)C(N)=O)NC(=O)[C@H](CCC(=O)O)NC(=O)[C@H](C(C)C)NC(=O)[C@H](CC2CCCCC2)NC(=O)[C@H](CCN)NC1=O` [Example 2735] ({CH2CO}-[Ala(morpholin-4-yl)][Phe(4-COOH)]D[Phe(3-CF3)][Bip(4'-COOH)][Bip][Phe(4-COOH)][Orn][dL][Dab][Cha]VEC[Dab]-NH2; thioether N-14) it is 2.2 nM.
Regarding `CC(=O)Nc1ccc(-c2ccc(C[C@@H]3NC(=O)[C@H](Cc4cccc(C(F)(F)F)c4)NC(=O)[C@H](CC(=O)O)NC(=O)[C@H](Cc4ccc(C(=O)O)cc4)NC(=O)[C@H](CN4CCOCC4)NC(=O)CSC[C@@H](C(=O)N[C@@H](CCN)C(N)=O)NC(=O)[C@H](CCC(=O)O)NC(=O)[C@H](C(C)C)NC(=O)[C@H](CC4CCCCC4)NC(=O)[C@H](CCN)NC(=O)[C@@H](CC(C)C)NC(=O)[C@H](CCCN)NC(=O)[C@H](Cc4ccc(C(=O)O)cc4)NC(=O)[C@H](Cc4ccc(-c5ccccc5)cc4)NC3=O)cc2)cc1` [Example 2736] ({CH2CO}-[Ala(morpholin-4-yl)][Phe(4-COOH)]D[Phe(3-CF3)][Bip(4'-NHAc)][Bip][Phe(4-COOH)][Orn][dL][Dab][Cha]VEC[Dab]-NH2; thioether N-14), the IC50 was found to be 1.1 nM.
To `CC(C)C[C@H]1NC(=O)[C@H](CCCN)NC(=O)[C@H](Cc2ccc(C(=O)O)cc2)NC(=O)[C@H](Cc2ccc(-c3ccccc3)cc2)NC(=O)[C@H](Cc2cccc3ccccc23)NC(=O)[C@H](Cc2cccc(C(F)(F)F)c2)NC(=O)[C@H](CC(=O)O)NC(=O)[C@H](Cc2ccc(C(=O)O)cc2)NC(=O)[C@H](CN2CCOCC2)NC(=O)CSC[C@@H](C(=O)N[C@@H](CCN)C(N)=O)NC(=O)[C@H](CCC(=O)O)NC(=O)[C@H](C(C)C)NC(=O)[C@H](CC2CCCCC2)NC(=O)[C@H](CCN)NC1=O` [Example 2737] ({CH2CO}-[Ala(morpholin-4-yl)][Phe(4-COOH)]D[Phe(3-CF3)][1Nal][Bip][Phe(4-COOH)][Orn][dL][Dab][Cha]VEC[Dab]-NH2; thioether N-14) belongs 5.4 nM.
On to `CC(C)C[C@H]1NC(=O)[C@H](CCCN)NC(=O)[C@H](Cc2ccc(C(=O)O)cc2)NC(=O)[C@H](Cc2ccc(-c3ccccc3)cc2)NC(=O)[C@H](Cc2ccc3ccccc3c2)NC(=O)[C@H](Cc2cccc(C(F)(F)F)c2)NC(=O)[C@H](CC(=O)O)NC(=O)[C@H](Cc2ccc(C(=O)O)cc2)NC(=O)[C@H](CN2CCOCC2)NC(=O)CSC[C@@H](C(=O)N[C@@H](CCN)C(N)=O)NC(=O)[C@H](CCC(=O)O)NC(=O)[C@H](C(C)C)NC(=O)[C@H](CC2CCCCC2)NC(=O)[C@H](CCN)NC1=O` [Example 2738] ({CH2CO}-[Ala(morpholin-4-yl)][Phe(4-COOH)]D[Phe(3-CF3)][2Nal][Bip][Phe(4-COOH)][Orn][dL][Dab][Cha]VEC[Dab]-NH2; thioether N-14), for which the concentration for half-maximal inhibition (IC50) came to 2.3 nM.
With `CC(C)C[C@H]1NC(=O)[C@H](CCCN)NC(=O)[C@H](Cc2ccc(C(=O)O)cc2)NC(=O)[C@H](Cc2ccc(-c3ccccc3)cc2)NC(=O)[C@H](Cc2csc3ccccc23)NC(=O)[C@H](Cc2cccc(C(F)(F)F)c2)NC(=O)[C@H](CC(=O)O)NC(=O)[C@H](Cc2ccc(C(=O)O)cc2)NC(=O)[C@H](CN2CCOCC2)NC(=O)CSC[C@@H](C(=O)N[C@@H](CCN)C(N)=O)NC(=O)[C@H](CCC(=O)O)NC(=O)[C@H](C(C)C)NC(=O)[C@H](CC2CCCCC2)NC(=O)[C@H](CCN)NC1=O` [Example 2739] ({CH2CO}-[Ala(morpholin-4-yl)][Phe(4-COOH)]D[Phe(3-CF3)][Bta][Bip][Phe(4-COOH)][Orn][dL][Dab][Cha]VEC[Dab]-NH2; thioether N-14), the IC50 stood at 3.2 nM.
The figure for `CC(C)C[C@H]1NC(=O)[C@H](CCCN)NC(=O)[C@H](Cc2ccc(C(=O)O)cc2)NC(=O)[C@H](Cc2ccc(-c3ccccc3)cc2)NC(=O)[C@H](Cc2c[nH]c3ccc(C#N)cc23)NC(=O)[C@H](Cc2cccc(C(F)(F)F)c2)NC(=O)[C@H](CC(=O)O)NC(=O)[C@H](Cc2ccc(C(=O)O)cc2)NC(=O)[C@H](CN2CCOCC2)NC(=O)CSC[C@@H](C(=O)N[C@@H](CCN)C(N)=O)NC(=O)[C@H](CCC(=O)O)NC(=O)[C@H](C(C)C)NC(=O)[C@H](CC2CCCCC2)NC(=O)[C@H](CCN)NC1=O` [Example 2740] ({CH2CO}-[Ala(morpholin-4-yl)][Phe(4-COOH)]D[Phe(3-CF3)][Trp(5-CN)][Bip][Phe(4-COOH)][Orn][dL][Dab][Cha]VEC[Dab]-NH2; thioether N-14) is 4.8 nM.
To `CC(C)C[C@H]1NC(=O)[C@H](CCCN)NC(=O)[C@H](Cc2ccc(C(=O)O)cc2)NC(=O)[C@H](Cc2ccc(-c3ccccc3)cc2)NC(=O)[C@H](Cc2ccc3ncccc3c2)NC(=O)[C@H](Cc2cccc(C(F)(F)F)c2)NC(=O)[C@H](CC(=O)O)NC(=O)[C@H](Cc2ccc(C(=O)O)cc2)NC(=O)[C@H](CN2CCOCC2)NC(=O)CSC[C@@H](C(=O)N[C@@H](CCN)C(N)=O)NC(=O)[C@H](CCC(=O)O)NC(=O)[C@H](C(C)C)NC(=O)[C@H](CC2CCCCC2)NC(=O)[C@H](CCN)NC1=O` [Example 2741] ({CH2CO}-[Ala(morpholin-4-yl)][Phe(4-COOH)]D[Phe(3-CF3)][X5][Bip][Phe(4-COOH)][Orn][dL][Dab][Cha]VEC[Dab]-NH2; thioether N-14) belongs 2.3 nM.
In the case of `CC(C)C[C@H]1NC(=O)[C@H](CCCN)NC(=O)[C@H](Cc2ccc(C(=O)O)cc2)NC(=O)[C@H](Cc2ccc(-c3ccccc3)cc2)NC(=O)[C@H](Cc2cccc3[nH]ccc23)NC(=O)[C@H](Cc2cccc(C(F)(F)F)c2)NC(=O)[C@H](CC(=O)O)NC(=O)[C@H](Cc2ccc(C(=O)O)cc2)NC(=O)[C@H](CN2CCOCC2)NC(=O)CSC[C@@H](C(=O)N[C@@H](CCN)C(N)=O)NC(=O)[C@H](CCC(=O)O)NC(=O)[C@H](C(C)C)NC(=O)[C@H](CC2CCCCC2)NC(=O)[C@H](CCN)NC1=O` [Example 2742] ({CH2CO}-[Ala(morpholin-4-yl)][Phe(4-COOH)]D[Phe(3-CF3)][Ala(indol-4-yl)][Bip][Phe(4-COOH)][Orn][dL][Dab][Cha]VEC[Dab]-NH2; thioether N-14), the IC50 amounted to 4.6 nM.

These data come from patent publication US20250163104A1, “MACROCYCLIC IMMUNOMODULATORS” (priority 2021, published 2025).
